Several values for one entry are separate records, joined by “and”; a condition that tells them apart may be missing. Equal values may be shown once.
Key:
Giant foxtail (GIFT) [1] = experiment: whole plant or invertebrate; type: in vivo
Giant foxtail (GIFT) [2] = experiment: Greenhouse test Procedure VI (Examples 59-61; Tables 58-60); type: in vivo
Excerpt: (§1) This procedure describes interaction among herbicide, biocide and antidote when the herbicide is incorporated in a soil cover layer and the biocide and the antidote are applied in a soil furrow containing crop seed before emergence of the crop. The soil and seeding depth were described in Procedure IV. A first container was designated as an untreated control, a second container was designated as a herbicide control, a third container was designated as a herbicide + biocide control and a fourth container as a herbicide + biocide + antidote test container. The biocide and antidote were formulated as granules. The biocide was applied to the soil furrows of the third and fourth containers at an application rate of 1.1 mg of active compound per cm of row. The antidote was applied to the soil furrow of the fourth container at an application rate of 0.37 mg of active compound per cm of row. A measured amount of the herbicide dispersed or dissolved in acetone was applied to a measured quantity of soil. The quantity of soil treated with the herbicide was thoroughly mixed to incorporate the herbicide. Samples of this soil were used to cover the seed beds of the second, third and fourth containers. For each test series, the seed bed of the first container was likewise covered by a soil layer not treated with herbicide and without biocide or antidote in the soil furrow.
(§2) The containers were then placed on a bench in a greenhouse. Watering was by subirrigation plus overhead irrigation after the plants emerged. All treatments were run in duplicate. Plant response was observed according to Procedure IV. Variations in this procedure will be noted in the examples.
(§3) The procedure used in this example involved the PPI application of biocide and safener as described in general Procedure VI above. The "primary" herbicide in this test was MON-12000 (Herbi-cide No. 1) in admixture with other herbicides designated as "co-herbicides", which included LASSO® (co-herbicide B); DUAL® (C); acetochlor (A); EPTAM® (D); butylate (E) and PURSUIT® (K).
(§4) The in-furrow treatments with blended COUNTER 15G and antidote mixtures was as described in above examples. MON-12000 and the co-herbicides were formulated in acetone and applied as tank mixtures, incorporated into Dupo silt loam soil with a rotary drum mixer. Subsamples were used to cover seeded and in-furrow treated 10.2 cm pots. Pots were placed on greenhouse benches and subirrigated. Plant responses were observed thirteen days after PPI initiation. Test results (average of two replications) are shown in Table 58, wherein giant foxtail (GIFT) was used in place of shattercane.
(§5) This test was conducted in the same manner used in Example 59. All biocide and antidote components were the same and in these tests XRD-498 (Herbicide No. 21) was the prime herbicide. Co-herbicides are shown in Table 59 together with test data.
(§6) In one other test conducted as described in the preceding examples in this series of tests, the herbicide PURSUIT® was used as the primary herbicide (in the context of this invention) together with the same insecticide and safeners as above and the co-herbicides shown in Table 60, together with test results.

Velvetleaf (VELE) = experiment: as above; type: in vivo, Abutilon theophrasti
Excerpt: as §1, §2, §3, §4, §5, §6

cotton (COTT) = experiment: Multi-crop greenhouse test, biocide, herbicide and safener applied to soil covers (Examples 65, 66; Tables 64, 65); type: in vivo
Procedure: Tests according to this invention in various crops indicate widespread application of the invention. In Examples 62-66 below are described tests with a variety of herbicides contacted with COUNTER® 15G in the presence and absence of MON-7400 (Antidote No. 12); MON-13900 (No. 1); MON-4660 (No. 16) and flurazole (No. 16). Those tests were conducted according to Procedures IV or V described above and illustrated further in other foregoing examples. Plants used in all tests were, for crops (as abbreviated in parentheses); cotton (COTT); soybean (SOBE); CORN, grain sorghum (GRSO); wheat (WHEA) and RICE, and the weeds giant foxtail (GIFT) and velvetleaf (VELE). The data in the tables below represent averages of two replications.
In this test the crops and weeds were planted 1.3 cm deep in 13.7 cm X 27.7 cm pans containing Dupo silt loam soil. The test safeners were applied in acetone solution and COUNTER 15G as dry granules to soil cover layers and incorporated by shaking in a bag. Treated cover layers were placed on seeded pans which were transferred to greenhouse benches and subirrigated. Herbicide was applied POE six (6) days after PPI initiation and observations of plant injury made ten (10) days later; results are shown in Table 61. The herbicide used in this example was BEACON (No. 8).
In another test in the several crops and weeds used in this test series, the herbicidal component was MON-12000 (No. 1); the other components were the same. the procedure used in this test was the same as that described in Example 62, modified to use a light overhead irrigation (about 0.32 cm/day) during days 4-7 of the test.
In yet another test in this series, XRD-498 (Herbicide No. 21) was used as the herbicidal component in contact with COUNTER 15G in the presence of the above safeners. The various components of the system (biocide, herbicide and safener) were applied concurrently to soil covers of the seeded plants.

[3] = Antidote + Biocide No. 1 in furrow, Herbicide No. 6 0.14 Kg/Ha PPI
[4] = Antidote + Biocide No. 1 in furrow, Herbicide No. 11 0.0044 Kg/Ha PPI
[5] = Antidote + Biocide No. 1 in furrow, Herbicide No. 12 0.0044 Kg/Ha PPI
[6] = Antidote + Biocide No. 1 in furrow, Herbicide No. 13 0.0011 Kg/Ha PPI
[7] = Antidote + Biocide No. 1 in furrow, Herbicide No. 13 0.0022 Kg/Ha PPI
[8] = Antidote + Biocide No. 1 in furrow, Herbicide No. 14 0.07 Kg/Ha PPI
[9] = Antidote + Biocide No. 1 in furrow, Herbicide No. 16 0.07 Kg/Ha PPI, 13 days
[10] = Antidote + Biocide No. 1 in furrow, Herbicide No. 17 0.14 Kg/Ha PPI, 13 days
[11] = Antidote + Biocide No. 1 in furrow, Herbicide No. 18 0.04 Kg/Ha PPI, 13 days
[12] = Antidote + Biocide No. 1 in furrow, Herbicide No. 20 1.12 Kg/Ha PPI, 13 days
[13] = Antidote + Biocide No. 1 in furrow, Herbicide No. 22 0.28 Kg/Ha PPI, 13 days
[14] = Antidote + Biocide No. 1 in furrow, Herbicide No. 24 0.14 Kg/Ha PPI, 13 days
[15] = Antidote + Biocide No. 1 in furrow, Herbicide No. 25 0.14 Kg/Ha PPI, 13 days
[16] = Antidote + Biocide No. 1 in furrow, Herbicide No. 26 2.24 Kg/Ha PPI, 13 days
[17] = Antidote + Biocide No. 1 in furrow, Herbicide No. 28 0.04 Kg/Ha PPI, 13 days
[18] = Table 64, Herb. No. 1 0.018 Kg/Ha + Biocide No. 1 8.96 Kg/Ha + Antidote 4.48 Kg/Ha
[19] = Table 64, Herb. No. 1 0.07 Kg/Ha + Biocide No. 1 8.96 Kg/Ha + Antidote 4.48 Kg/Ha
[20] = Table 64, Herb. No. 1 0.28 Kg/Ha + Biocide No. 1 8.96 Kg/Ha + Antidote 4.48 Kg/Ha
[21] = Table 65, Herb. No. 1 0.018 Kg/Ha + Biocide No. 1 8.96 Kg/Ha + Antidote 4.48 Kg/Ha
[22] = Table 65, Herb. No. 1 0.07 Kg/Ha + Biocide No. 1 8.96 Kg/Ha + Antidote 4.48 Kg/Ha
[23] = Table 65, Herb. No. 1 0.28 Kg/Ha + Biocide No. 1 8.96 Kg/Ha + Antidote 4.48 Kg/Ha
[24] = Herbicide No. 12 0.0044 Kg/Ha PPI + Biocide No. 1 in furrow, no antidote
[25] = Herbicide No. 12 0.0044 Kg/Ha PPI alone, average of two reps

CC1(C)OC(c2ccco2)CN1C(=O)C(Cl)Cl (centres unmarked) [compound 1]
% Inhibition GIFT (Giant foxtail (GIFT) [1]; […], PPI, 13 days after PPI (Table 31)): 70%
% Inhibition GIFT (Giant foxtail (GIFT) [1]; in vivo): 45% and 60% and 85% and 65% and 90% and 55%
% Inhibition GIFT (Giant foxtail (GIFT) [2]; [3]): 65%
% Inhibition GIFT (Giant foxtail (GIFT) [2]; [4]): 0%
% Inhibition GIFT (Giant foxtail (GIFT) [2]; [5]): 0%
% Inhibition GIFT (Giant foxtail (GIFT) [2]; [6]): 25%
% Inhibition GIFT (Giant foxtail (GIFT) [2]; [7]): 35%
% Inhibition GIFT (Giant foxtail (GIFT) [2]; [8]): 0%
% Inhibition GIFT (Giant foxtail (GIFT) [2]; [9]): 30%
% Inhibition GIFT (Giant foxtail (GIFT) [2]; [10]): 75%
% Inhibition GIFT (Giant foxtail (GIFT) [2]; [11]): 55%
% Inhibition GIFT (Giant foxtail (GIFT) [2]; [12]): 20%
% Inhibition GIFT (Giant foxtail (GIFT) [2]; [13]): 25%
% Inhibition GIFT (Giant foxtail (GIFT) [2]; [14]): 10%
% Inhibition GIFT (Giant foxtail (GIFT) [2]; [15]): 30%
% Inhibition GIFT (Giant foxtail (GIFT) [2]; [16]): 0%
% Inhibition GIFT (Giant foxtail (GIFT) [2]; [17]): 50%
% Inhibition VELE (Velvetleaf (VELE); [3]): 70%
% Inhibition VELE (Velvetleaf (VELE); [4]): 75%
% Inhibition VELE (Velvetleaf (VELE); [5]): 55%
% Inhibition VELE (Velvetleaf (VELE); [6]): 25%
% Inhibition VELE (Velvetleaf (VELE); [7]): 60%
% Inhibition VELE (Velvetleaf (VELE); [8]): 85%
% Inhibition VELE (Velvetleaf (VELE); [9]): 60%
% Inhibition VELE (Velvetleaf (VELE); [10]): 80%
% Inhibition VELE (Velvetleaf (VELE); [11]): 50%
% Inhibition VELE (Velvetleaf (VELE); [12]): 95%
% Inhibition VELE (Velvetleaf (VELE); [13]): 80%
% Inhibition VELE (Velvetleaf (VELE); [14]): 90%
% Inhibition VELE (Velvetleaf (VELE); [15]): 75%
% Inhibition VELE (Velvetleaf (VELE); [16]): 65%
% Inhibition VELE (Velvetleaf (VELE); [17]): 90%
% Inhibition COTT (cotton (COTT); [18]): 20%
% Inhibition COTT (cotton (COTT); [19]): 35%
% Inhibition COTT (cotton (COTT); [20]): 35%
% Inhibition COTT (cotton (COTT); [21]): 10%
% Inhibition COTT (cotton (COTT); [22]): 20%
% Inhibition COTT (cotton (COTT); [23]): 45%

COC(=O)COC(c1ccccc1)c1ccccc1 [compound 12]
% Inhibition GIFT (Giant foxtail (GIFT) [1]; […], PPI, 14 days after PPI (Table 34)): 60%
% Inhibition GIFT (Giant foxtail (GIFT) [1]; in vivo): 45% and 65% and 75% and 50% and 55% and 70% and 90%
% Inhibition GIFT (Giant foxtail (GIFT) [2]; [3]): 60%
% Inhibition GIFT (Giant foxtail (GIFT) [2]; [4]): 0%
% Inhibition GIFT (Giant foxtail (GIFT) [2]; [5]): 0%
% Inhibition GIFT (Giant foxtail (GIFT) [2]; [6]): 0%
% Inhibition GIFT (Giant foxtail (GIFT) [2]; [7]): 25%
% Inhibition GIFT (Giant foxtail (GIFT) [2]; [8]): 0%
% Inhibition GIFT (Giant foxtail (GIFT) [2]; [9]): 35%
% Inhibition GIFT (Giant foxtail (GIFT) [2]; [10]): 80%
% Inhibition GIFT (Giant foxtail (GIFT) [2]; [11]): 50%
% Inhibition GIFT (Giant foxtail (GIFT) [2]; [12]): 25%
% Inhibition GIFT (Giant foxtail (GIFT) [2]; [13]): 20%
% Inhibition GIFT (Giant foxtail (GIFT) [2]; [14]): 20%
% Inhibition GIFT (Giant foxtail (GIFT) [2]; [15]): 25%
% Inhibition GIFT (Giant foxtail (GIFT) [2]; [16]): 0%
% Inhibition GIFT (Giant foxtail (GIFT) [2]; [17]): 35%
% Inhibition GIFT (Giant foxtail (GIFT) [2]; [24]): 0%
% Inhibition GIFT (Giant foxtail (GIFT) [2]; [25]): 0%
% Inhibition VELE (Velvetleaf (VELE); [3]): 65%
% Inhibition VELE (Velvetleaf (VELE); [4]): 70%
% Inhibition VELE (Velvetleaf (VELE); [5]): 60%
% Inhibition VELE (Velvetleaf (VELE); [6]): 15%
% Inhibition VELE (Velvetleaf (VELE); [7]): 60%
% Inhibition VELE (Velvetleaf (VELE); [8]): 85%
% Inhibition VELE (Velvetleaf (VELE); [9]): 60%
% Inhibition VELE (Velvetleaf (VELE); [10]): 80%
% Inhibition VELE (Velvetleaf (VELE); [11]): 70%
% Inhibition VELE (Velvetleaf (VELE); [12]): 95%
% Inhibition VELE (Velvetleaf (VELE); [13]): 75%
% Inhibition VELE (Velvetleaf (VELE); [14]): 90%
% Inhibition VELE (Velvetleaf (VELE); [15]): 70%
% Inhibition VELE (Velvetleaf (VELE); [16]): 55%
% Inhibition VELE (Velvetleaf (VELE); [17]): 80%
% Inhibition VELE (Velvetleaf (VELE); [24]): 50%
% Inhibition VELE (Velvetleaf (VELE); [25]): 50%
% Inhibition COTT (cotton (COTT); [18]): 10%
% Inhibition COTT (cotton (COTT); [19]): 40%
% Inhibition COTT (cotton (COTT); [20]): 40%
% Inhibition COTT (cotton (COTT); [21]): 15%
% Inhibition COTT (cotton (COTT); [22]): 10%
% Inhibition COTT (cotton (COTT); [23]): 35%

From patent publication EP0565593B1, “REDUCING PESTICIDAL INTERACTIONS IN CROPS” (priority 1990, dated 1992)
